The target of the test is T1, Mp myosin XI-MD (Marchantia polymorpha, UniProt H3JRT9).
T1 construct: gene MyoXI; motor domain, residues 1-738; N-terminal FLAG tag (MDYKDDDDKRSMNSRPA), C-terminal GGG-Myc-His8 tag
T1 sequence (H3JRT9 1-738): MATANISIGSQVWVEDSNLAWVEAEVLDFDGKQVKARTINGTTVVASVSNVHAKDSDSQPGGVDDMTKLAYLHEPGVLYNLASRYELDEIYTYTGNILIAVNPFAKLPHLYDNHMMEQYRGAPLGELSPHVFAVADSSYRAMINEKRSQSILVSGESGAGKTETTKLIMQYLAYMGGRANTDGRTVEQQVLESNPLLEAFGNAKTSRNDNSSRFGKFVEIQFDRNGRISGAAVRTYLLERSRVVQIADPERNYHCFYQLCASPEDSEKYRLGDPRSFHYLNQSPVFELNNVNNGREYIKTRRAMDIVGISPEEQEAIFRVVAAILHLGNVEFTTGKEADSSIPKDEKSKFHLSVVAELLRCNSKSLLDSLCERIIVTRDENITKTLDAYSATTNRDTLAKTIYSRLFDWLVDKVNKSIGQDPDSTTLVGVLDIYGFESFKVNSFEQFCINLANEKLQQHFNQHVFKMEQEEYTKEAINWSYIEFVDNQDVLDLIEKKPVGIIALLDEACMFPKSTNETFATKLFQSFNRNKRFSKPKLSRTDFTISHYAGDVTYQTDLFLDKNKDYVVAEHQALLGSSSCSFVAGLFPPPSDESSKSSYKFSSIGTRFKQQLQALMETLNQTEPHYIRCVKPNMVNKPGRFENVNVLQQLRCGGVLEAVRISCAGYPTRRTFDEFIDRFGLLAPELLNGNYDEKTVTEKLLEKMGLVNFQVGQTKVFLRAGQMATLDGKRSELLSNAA
The test is described as follows: steady-state actin-activated Mg2+-ATPase assay. Type of test: biochemical. Particulars: F-actin varied, 25 °C.

For `Nc1ncnc2c1ncn2[C@@H]1O[C@H](COP(=O)(O)OP(=O)(O)OP(=O)(O)O)[C@@H](O)[C@H]1O` [ATP], the “steady-state actin-activated Mg2+-ATPase assay” value was “we determined the maximum rate of ATP turnover (V max) and the actin concentration”.

The values above are taken from PMC7689712, “Characterization of ancestral myosin XI from Marchantia polymorpha by heterologous expression in Arabidopsis thaliana” (The Plant Journal, 2020).
